# pIC50: −log10 of the molar value.
# Tests used:
# [1] = tested on: HepG 2.2.15 cells; test: Cytotoxicity, modified MTT method; format: cell-based; details: 50 % cytotoxicity concentration in HepG 2.2.15 cells; means of two independent experiments
# Description: (§1) Based on our previous description, inhibitory activity on HBV (HBsAg, HBeAg and HBV DNA) was evaluated. […] Cytotoxicity was assayed with a modified 3-(4,5-dimethylthiazole-2-yl)-2,5-diphenyltetrazolium bromide (MTT) method (Gibco Invitrogen, Carlsbad, CA, USA). The anti-HBV antigen secretion activities were determined by the enzyme linked immunosorbent assay (ELISA; Autobio Diagnostics Co., Ltd, China). A real-time PCR assay was applied to detect the inhibitory activity on HBV DNA replication.
# [2] = tested on: HBV DNA replication; test: Inhibition of HBV DNA replication, real-time PCR, HepG 2.2.15 cells; format: cell-based, Hepatitis B virus; details: for pIC50: HepG 2.2.15 cells, means of two independent experiments; for growth of inhibition on HBV DNA replication: relative to inactive compound 8
# Description: as §1
# [3] = tested on: HBsAg secretion; test: microbe, parasite or virus in culture; format: cell-based, Hepatitis B virus; details: for pIC50: HepG 2.2.15 cells, means of two independent experiments, read-out: HBsAg IC50; for growth of inhibition on HBsAg secretion: relative to inactive compound 8
# Description: as §1
# [4] = tested on: HBeAg secretion; test: microbe, parasite or virus in culture; format: cell-based, Hepatitis B virus; details: HepG 2.2.15 cells; means of two independent experiments; read-out: HBeAg IC50
# Description: as §1
# [5] = tested on: liver injury induced by D-galactosamine and lipopolysaccharide; design: method as in PMID 12880307; details: liver injury induced by D-galactosamine and lipopolysaccharide in mice; cited from earlier work
Structure (SMILES),CC50 [1] [µM],pIC50 [2],pIC50 [3],pIC50 [4],growth of inhibition on HBV DNA replication [2] [folds],growth of inhibition on HBsAg secretion [3] [folds],hepatoprotective activity [5]
"CC(=O)OC1CCC2(C)C(CCC3(C)C2CC(O)C2C(C4(C)CCCC(C)(C)O4)CCC23C)C1(C)C (centres unmarked) [Compound 1, 3-O-Acetly-panaxadiol]",> 2060,–,–,–,–,–,–
"CC1(C)CCCC(C)(C2CCC3(C)C2C(O)CC2C4(C)CCC(OC(=O)C5CCCC5)C(C)(C)C4CCC23C)O1 (centres unmarked) [Compound 2, 3-O-Cyclopentanecarbonyl panaxadiol]",> 2140,3.29,2.90,< 2.67,–,–,–
"CC1(C)CCCC(C)(C2CCC3(C)C2C(O)CC2C4(C)CCC(OC(=O)c5ccco5)C(C)(C)C4CCC23C)O1 (centres unmarked) [Compound 3, 3-O-(2′-Furoyl) panaxadiol]",1180,4.30,3.08,2.93,–,–,–
"CC1(C)CCCC(C)(C2CCC3(C)C2C(O)CC2C4(C)CCC(OC(=O)c5cccs5)C(C)(C)C4CCC23C)O1 (centres unmarked) [Compound 4, 3-O-(2′-Thenoyl) panaxadiol]",> 1910,4.78,4.51,4.74,–,–,–
"Cc1ccsc1C(=O)OC1CCC2(C)C(CCC3(C)C2CC(O)C2C(C4(C)CCCC(C)(C)O4)CCC23C)C1(C)C (centres unmarked) [Compound 5, 3-O-(3′-Methyl)-thenoyl panaxadiol]",> 2020,< 3.30,< 2.69,< 2.69,–,–,–
"CC1(C)CCC[C@](C)([C@H]2CC[C@]3(C)[C@@H]2[C@H](O)C[C@@H]2[C@@]4(C)CC[C@H](OC(=O)c5sccc5Cl)C(C)(C)[C@@H]4CC[C@]23C)O1 [Compound 6, 3-O-(3′-Chloro)-thenoyl panaxadiol]",> 1640,4.36,–,3.55,–,–,–
"CC1(C)CCCC(C)(C2CCC3(C)C2C(O)CC2C4(C)CCC(OC(=O)c5cc6ccccc6s5)C(C)(C)C4CCC23C)O1 (centres unmarked) [Compound 7, 3-O-Benzothiophene-2-carboxyl panaxadiol]",> 1690,–,–,–,–,–,–
"CC1(C)CCC[C@](C)([C@H]2CC[C@]3(C)[C@@H]2[C@H](O)C[C@@H]2[C@@]4(C)CC[C@H](OC(=O)c5ccccc5)C(C)(C)[C@@H]4CC[C@]23C)O1 [Compound 8, 3-O-Benzoyl panaxadiol]",> 2000,3.30,< 2.70,< 2.70,–,–,–
"CC1(C)CCCC(C)(C2CCC3(C)C2C(O)CC2C4(C)CCC(OC(=O)c5ccccc5O)C(C)(C)C4CCC23C)O1 (centres unmarked) [Compound 9, 3-O-Salicyloyl panaxadiol]",44.4,5.04,4.36,–,60,60,–
"CC1(C)CCC[C@](C)([C@H]2CC[C@]3(C)[C@@H]2[C@H](O)C[C@@H]2[C@@]4(C)CC[C@H](OC(=O)c5cc(O)c(O)c(O)c5)C(C)(C)[C@@H]4CC[C@]23C)O1 [Compound 10, 3-O-Galloyl panaxadiol]",25.9,5.14,4.34,< 2.84,60,60,–
"CC1(C)CCCC(C)(C2CCC3(C)C2C(O)CC2C4(C)CCC(OC(=O)c5cccnc5)C(C)(C)C4CCC23C)O1 (centres unmarked) [Compound 11, 3-O-Nicotinoyl panaxadiol]",1150,3.93,2.94,2.94,–,–,–
"CCCCC(=O)O[C@H]1CC[C@]2(C)[C@H]3C[C@@H](O)[C@@H]4[C@@H]([C@@]5(C)CCCC(C)(C)O5)CC[C@@]4(C)[C@]3(C)CC[C@H]2C1(C)C [Compound 12, 3-O-Valeryl panaxadiol]",> 1580,< 2.80,–,–,–,–,–
"CCOCC(=O)O[C@H]1CC[C@]2(C)[C@H]3C[C@@H](O)[C@@H]4[C@@H]([C@@]5(C)CCCC(C)(C)O5)CC[C@@]4(C)[C@]3(C)CC[C@H]2C1(C)C [Compound 13, 3-O-2′-Ethyoxyl-acetyl panaxadiol]",1490,< 3.23,3.23,< 2.63,–,–,–
"CC1(C)CCCC(C)(C2CCC3(C)C2C(O)CC2C4(C)CCC(OC(=O)CCC(=O)O)C(C)(C)C4CCC23C)O1 (centres unmarked) [Compound 14, 3-O-Succinyl panaxadiol]",179,4.78,3.70,3.77,–,–,–
"CC1(C)CCCC(C)(C2CCC3(C)C2C(O)CC2C4(C)CCC(OC(=O)CCCC(=O)O)C(C)(C)C4CCC23C)O1 (centres unmarked) [Compound 15, 3-O-Glutaryl panaxadiol]",86.6,4.55,4.27,3.99,–,–,–
"CC1(C)CCCC(C)(C2CCC3(C)C2C(O)CC2C4(C)CCC(OC(=O)COCC(=O)O)C(C)(C)C4CCC23C)O1 (centres unmarked) [Compound 16, 3-O-Diglycolyl panaxadiol]",> 1700,4.28,< 2.77,3.05,–,–,–

Structure (SMILES),CC50 [1] [µM],pIC50 [2],pIC50 [3],pIC50 [4],growth of inhibition on HBV DNA replication [2] [folds],growth of inhibition on HBsAg secretion [3] [folds],hepatoprotective activity [5]
"CC(CC(=O)O)CC(=O)O[C@H]1CC[C@]2(C)[C@H]3C[C@@H](O)[C@@H]4[C@@H]([C@@]5(C)CCCC(C)(C)O5)CC[C@@]4(C)[C@]3(C)CC[C@H]2C1(C)C (some centres unmarked) [Compound 17, 3-O-(3′-Methyl) diglutaryl panaxadiol]",934,4.06,–,–,–,–,–
"CC(C)(CC(=O)O)CC(=O)O[C@H]1CC[C@]2(C)[C@H]3C[C@@H](O)[C@@H]4[C@@H]([C@@]5(C)CCCC(C)(C)O5)CC[C@@]4(C)[C@]3(C)CC[C@H]2C1(C)C [Compound 18, 3-O-(3′,3′-Dimethyl) glutaryl panaxadiol]",314,3.91,3.03,–,–,–,–
"CC1(C)CCCC(C)(C2CCC3(C)C2C(O)CC2C4(C)CCC(OC(=O)CC5(CC(=O)O)CCCC5)C(C)(C)C4CCC23C)O1 (centres unmarked) [Compound 19, 3-O-(3′,3′-tetramethylene)diglutaryl panaxadiol]",> 1730,< 3.36,< 2.76,< 2.76,–,–,–
"CC(=O)OC1CC2(C)C(CC(O)C3C(C4(C)CCCC(C)(C)O4)CCC32C)C2(C)CCC(OC(C)=O)C(C)(C)C12 (centres unmarked) [Compound 20, 3,6-O-Diacetyl-panaxatriol]",> 2100,3.26,< 2.68,< 2.68,–,–,–
"CC1(C)CCCC(C)(C2CCC3(C)C2C(O)CC2C4(C)CCC(OC(=O)CCC(=O)O)C(C)(C)C4C(OC(=O)CCC(=O)O)CC23C)O1 (centres unmarked) [Compound 21, 3,6-O-Disuccinyl panaxatriol]",> 1940,< 3.31,< 2.71,< 2.71,–,–,–
"CC1(C)CCCC(C)(C2CCC3(C)C2C(O)CC2C4(C)CCC(OC(=O)c5ccco5)C(C)(C)C4C(OC(=O)c4ccco4)CC23C)O1 (centres unmarked) [Compound 22, 3,6-O-Di(2′-furoyl)-panaxatriol]",530,< 3.49,< 2.89,< 2.89,–,–,–
"CC1(C)CCCC(C)(C2CCC3(C)C2C(O)CC2C4(C)CCC(OC(=O)c5cccs5)C(C)(C)C4C(OC(=O)c4cccs4)CC23C)O1 (centres unmarked) [Compound 23, 3,6-O-Di(2′-thenoyl)-panaxatriol]",> 2090,< 2.68,–,–,–,–,–
"CC1(C)CCCC(C)(C2CCC3(C)C2C(O)CC2C4(C)CCC(OC(=O)c5cccnc5)C(C)(C)C4C(OC(=O)c4cccnc4)CC23C)O1 (centres unmarked) [Compound 24, 3,6-O-Dinicotinoyl-panaxatriol]",1650,3.39,2.78,2.97,–,–,–
"COCC(=O)OC1CC2(C)C(CC(O)C3C(C4(C)CCCC(C)(C)O4)CCC32C)C2(C)CCC(OC(=O)COC)C(C)(C)C12 (centres unmarked) [Compound 25, 3,6-O-Di(2′-methoxyl)acetoxyl-panaxatriol]",> 1500,< 3.43,< 2.82,3.01,–,–,–
"CC(=O)OC1CCC2(C)C(CCC3(C)C2CC(=O)C2C(C4(C)CCCC(C)(C)O4)CCC23C)C1(C)C [Compound 26, (20R)-20,25-Epoxy-3-O-acetoyl-dammaran-12-dione]",> 2280,–,–,–,–,–,–
"CC1(C)CCCC(C)(C2CCC3(C)C2C(=O)CC2C4(C)CCC(OC(=O)c5cccs5)C(C)(C)C4CCC23C)O1 [Compound 27, (20R)-20,25-Epoxy-3-O-(2′-thenoyl)-dammaran-12-dione]",> 2160,–,–,–,–,–,–
"CC1(C)CCCC(C)(C2CCC3(C)C2C(=O)CC2C4(C)CCC(OC(=O)CCC(=O)O)C(C)(C)C4CCC23C)O1 [Compound 28, (20R)-20,25-Epoxy-3-O-succinyl-dammaran-12-dione]",> 1940,< 3.31,< 2.71,< 2.71,–,–,–
"CC(C)=CCC[C@](C)(O[C@@H]1O[C@H](CO[C@@H]2OC[C@@H](O)[C@H](O)[C@H]2O)[C@@H](O)[C@H](O)[C@H]1O)[C@H]1CC[C@]2(C)[C@@H]1[C@H](O)C[C@@H]1[C@@]3(C)CC[C@H](O[C@@H]4O[C@H](CO)[C@@H](O)[C@H](O)[C@H]4O[C@@H]4O[C@H](CO)[C@@H](O)[C@H](O)[C@H]4O)C(C)(C)[C@@H]3CC[C@]12C [Rb3, ginsenoside Rb3]",–,–,–,–,–,–,showed hepatoprotective activity
"CC(C)=CCC[C@](C)(O[C@@H]1O[C@H](CO[C@@H]2O[C@@H](CO)[C@H](O)[C@H]2O)[C@@H](O)[C@H](O)[C@H]1O)[C@H]1CC[C@]2(C)[C@@H]1[C@H](O)C[C@@H]1[C@@]3(C)CC[C@H](O[C@@H]4O[C@H](CO)[C@@H](O)[C@H](O)[C@H]4O[C@@H]4O[C@H](CO)[C@@H](O)[C@H](O)[C@H]4O)C(C)(C)[C@@H]3CC[C@]12C [Rc, ginsenoside Rc]",–,–,–,–,–,–,showed hepatoprotective activity
"O=C(O)c1cccs1 [TA, thiophenezoic acid, reference compound]",–,2.75,–,–,–,–,–
